# Laboratory results published in patent US10174038B2, “Compounds and methods for antiviral treatment” (Gilead Sciences, Inc., priority 2012, dated 2019).
# Test system: RSV strain A2
# Assay: RSV antiviral activity, in vitro cytoprotection assay in Hep2 cells
# Type: cell-based, Respiratory Syncytial Virus (RSV)
# Settings: human respiratory syncytial virus, HEp-2; 0.5 μM compound; RSV-induced cytopathic effect in Hep2 cells; % inhibition calculated from fitted 4-parameter dose response curve, normalized to 0% and 100%; read-out: Percent inhibition at 0.5 μM
# Protocol: Antiviral activity against RSV was determined using an in vitro cytoprotection assay in Hep2 cells. […] The method used was similar to methods previously described in published literature (Chapman et al., Antimicrob Agents Chemother. 2007, 51(9):3346-53.)
# Hep2 cells were obtained from ATCC (Manassas, Va.) and maintained in MEM media supplemented with 10% fetal bovine serum and penicillin/streptomycin. Cells were passaged twice a week and kept at subconfluent stage. Commercial stock of RSV strain A2 (Advanced Biotechnologies, Columbia, Md.) was titered before compound testing to determine the appropriate dilution of the virus stock that generated desirable cytopathic effect in Hep2 cells.
# For antiviral tests, Hep2 cells were seeded into 96-well plates 24 hours before the assay at a density of 3,000 cells/well. On a separate 96 well plate, compounds to be tested were serially diluted in cell culture media. Eight concentrations in 3-fold serial dilution increments were prepared for each tested compound and 100 uL/well of each dilution was transferred in duplicate onto plates with seeded Hep2 cells. Subsequently, appropriate dilution of virus stock previously determined by titration was prepared in cell culture media and 100 uL/well was added to test plates containing cells and serially diluted compounds. Each plate included three wells of infected untreated cells and three wells of uninfected cells that served as 0% and 100% virus inhibition control, respectively. Following the infection with RSV, testing plates were incubated for 4 days in a tissue culture incubator. After the incubation, RSV-induced cytopathic effect was determined using a Cell TiterGlo reagent (Promega, Madison, Wis.) followed by a luminescence read-out. The percentage inhibition was calculated for each tested concentration relative to the 0% and 100% inhibition controls and the EC50 value for each compound was determined by non-linear regression as a concentration inhibiting the RSV-induced cytopathic effect by 50%. Ribavirin (purchased from Sigma, St. Louis, Mo.) was used as a positive control for antiviral activity.
# Compounds were also tested for antiviral activity against RSV in Hep2 cells using a 384 well format. Compounds were diluted in DMSO using a 10-step serial dilution in 3-fold increments via automation in 4 adjacent replicates each. Eight compounds were tested per dilution plate. 0.4 uL of diluted compounds were then stamped via Biomek into 384-well plates (Nunc 142761 or 164730 w/lid 264616) containing 20 μL of media (Mediatech Inc. MEM supplemented with Glutamine, 10% FBS and Pen/Strep). DMSO and a suitable positive control compound, such as 80 μM GS-329467 or 10 μM 427346 was used for the 100% and 0% cell killing controls, respectively.
# Hep2 cells (1.0×10^5 cells/ml) were prepared as above in batch to at least 40 mls excess of the number of sample plates (8 mls cell mix per plate) and infected with vendor supplied (ABI) RSV strain A2 to arrive at an MOI of 1:1000 (virus:cell #) or 1:3000 (vol virus:cell vol). Immediately after addition of virus, the RSV infected Hep2 cell suspension was added to each stamped 384-well plate at 20 μl per well using a uFlow dispenser, giving a final volume of 40 μL/well, each with 2000 infected cells. The plates were then incubated for 5 days at 37° C. and 5% CO2. Following incubation, the plates were equilibrated to room temperature in a biosafety cabinet hood for 1.5 hrs and 40 μL of Cell-Titer Glo viability reagent (Promega) was added to each well via uFlow. Following a 10-20 minute incubation, the plates were read using an EnVision or Victor Luminescence plate reader (Perkin-Elmer). The data was then uploaded and analyzed on the Bioinformatics portal under the RSV Cell Infectivity and 8-plate EC50-Hep2-384 or 8-plate EC50-Hep2-Envision protocols. […]
row,Structure (SMILES),inhibition at 0.5 µM
1,CS(=O)(=O)Nc1ccc(Cl)cc1C(=O)N1CCCC[C@H]1c1cc2nc(C3CCCC3)cc(N3CCOCC3)n2n1 [Compound 57],93%
2,Cc1nc2cc([C@@H]3CCCCN3C(=O)c3cc(F)ccc3NS(C)(=O)=O)nn2c(C)c1C [Compound 58],89%
3,CN1CCN(c2cc(C3CC3)nc3cc([C@@H]4CCCCN4C(=O)c4cc(Cl)ccc4NS(C)(=O)=O)nn23)CC1 [Compound 59],92%
4,Cc1cc(N(C)CCO)nc2cc([C@@H]3CCCCN3C(=O)c3cc(Cl)ccc3NS(C)(=O)=O)nn12 [Compound 60],87%
5,Cc1cn2nc([C@@H]3CCCCN3C(=O)c3cc(Cl)ccc3NS(=O)(=O)N(C)C)cc2nc1N1CC[C@H](N)C1 [Compound 61],100%
6,Cc1cn2nc([C@@H]3CCCCN3C(=O)c3cc(Cl)ccc3NC(=O)c3ccccc3)cc2nc1N1CC[C@H](N)C1 [Compound 62],100%
7,Cc1cn2nc([C@@H]3CCCCN3C(=O)c3cc(Cl)ccc3NC(=O)OCC(F)(F)F)cc2nc1N1CC[C@H](N)C1 [Compound 63],100%
8,Cc1cn2nc([C@@H]3CCCCN3C(=O)c3cc(Cl)ccc3NC(=O)N(C)C)cc2nc1N1CC[C@H](N)C1 [Compound 64],100%
9,Cc1cn2nc([C@@H]3CCCCN3C(=O)c3cc(Cl)ccc3NC(=O)C(F)F)cc2nc1N1CC[C@H](N)C1 [Compound 65],100%
10,Cc1cc(C)nc(C(=O)N2CCCC[C@H]2c2cc3nc(N4CC[C@H](N)C4)c(C)cn3n2)c1 [Compound 66],100%
11,Cc1cn2nc([C@@H]3CCCCN3C(=O)c3cccc(C(F)(F)F)n3)cc2nc1N1CC[C@H](N)C1 [Compound 67],99%
12,CC(C)OC(=O)Nc1ccc(Cl)cc1C(=O)N1CCCC[C@H]1c1cc2nc(N3CCC3)cc(N3CCN(C(=O)OC(C)(C)C)CC3)n2n1 [Compound 68],100%
13,CC(C)OC(=O)Nc1ccc(Cl)cc1C(=O)N1CCCC[C@H]1c1cc2nc(N3CCC3)cc(N3CCNCC3)n2n1 [Compound 69],99%
14,CS(=O)(=O)Nc1ccc(Cl)cc1C(=O)N1CCCC[C@H]1c1cc2nc(N3CCC3)cc(N3CCCC(N)C3)n2n1 (some centres unmarked) [Compound 70],100%
15,CS(=O)(=O)Nc1ccc(Cl)cc1C(=O)N1CCCC[C@H]1c1cc2nc(N3CCC3)cc(N3CC[C@@H](N)C3)n2n1 [Compound 71],100%
16,CN(C)[C@@H]1CCN(c2cc(N3CCC3)nc3cc([C@@H]4CCCCN4C(=O)c4cc(Cl)ccc4NS(C)(=O)=O)nn23)C1 [Compound 72],100%
17,Cc1ccc(NS(C)(=O)=O)c(C(=O)N2CCCC[C@H]2c2cc3nc(C4CC4)c(C)cn3n2)c1 [Compound 73],100%
18,Cc1cc(C2CC2)nc2cc([C@@H]3CCCCN3C(=O)c3cc(F)cc(Cl)c3NS(C)(=O)=O)nn12 [Compound 74],97%
19,Cc1cc(C2CC2)nc2cc([C@@H]3CCCCN3C(=O)c3cc(F)ccc3NS(C)(=O)=O)nn12 [Compound 75],100%
20,Cc1ccc(C(=O)N2CCCC[C@H]2c2cc3nc(C4CC4)cc(C)n3n2)c(NS(C)(=O)=O)c1 [Compound 76],99%
21,Cc1cc(C2CC2)nc2cc([C@@H]3CCCCN3C(=O)c3cc(Cl)ccc3N)nn12 [Compound 77],94%
22,Cc1nc2cc([C@@H]3CCCCN3C(=O)c3cc(Cl)ccc3NS(C)(=O)=O)nn2c(N2CCC2)c1C [Compound 78],99%
23,Cc1ccc(NS(C)(=O)=O)c(C(=O)N2CCCC[C@H]2c2cc3nc(C)c(C)c(N4CCC4)n3n2)c1 [Compound 79],100%
24,CCc1ccc(NS(C)(=O)=O)c(C(=O)N2CCCC[C@H]2c2cc3nc(C4CC4)cc(N4CCOCC4)n3n2)c1 [Compound 80],99%
25,Cc1ccc(NS(C)(=O)=O)c(C(=O)N2CCCC[C@H]2c2cc3nc(C)c(C)cn3n2)c1 [Compound 81],100%
26,CC(=O)Nc1ccc(C)c(Br)c1C(=O)N1CCCC[C@H]1c1cc2nc(C)c(C)c(C)n2n1 [Compound 83],100%
